ChEMBL document CHEMBL1151205, “Terpene isocyanides, isocyanates, and isothiocyanates from the Okinawan marine sponge Stylissa sp” (J Nat Prod, 2004)

Tested on: HeLa
Assay: Cytotoxicity against human HeLa cells by WST-8 assay
Format: functional, cell-based

How did the IC50 turn out when `C[C@H]1CC[C@]23[C@H]1[C@H]2[C@@H](C(C)(C)N=C=S)CC[C@@H]3C` (relative stereo) was run?
Its IC50 is 57.8 µM.

How did the IC50 turn out when `[C-]#[N+][C@@]1(C)CC[C@H]2[C@@H]3[C@@H](C(C)=CC[C@@H]31)[C@@H](C=C(C)C)C[C@@H]2C` (relative stereo) was run?
The IC50 was 20 µM.

Which IC50 does the source give for `C[C@H]1C[C@H]2CC(C)(C)CC3=CC[C@@]4(N=C=O)[C@@H]([C@@H]1CC[C@@H]4C)[C@@H]32` here?
The IC50 was 38.3 µM.

For `[C-]#[N+][C@@]12CC[C@H](C)C3=C(C=C(C)C)C[C@H](C)[C@@H](CC[C@@H]1C)[C@@H]32` (relative stereo), which IC50 is on record?
Its IC50 is 11.2 µM.

With `C[C@H]1C[C@H]2CC(C)(C)CC3=CC[C@@]4(N=C=S)[C@@H]([C@@H]1CC[C@@H]4C)[C@@H]32` as the molecule, how does the IC50 read?
The IC50 was 88.7 µM.

For `CC1=C[C@@H]2[C@@H](CC1)[C@@](C)(N=C=S)CC[C@H]2C(C)C` (relative stereo), which IC50 is on record?
Its IC50 is 73.7 µM.
